Data from patent US20070003640A1, “Process for controlling the isomerization of (-)-epicatechin and (+)-catechin in edible products” (priority 2005, published 2007).

Experiment: Isomerization of (+)-catechin to (+)-epicatechin
Type: physicochemical
Conditions: equilibrium mixture from isomerization of (+)-catechin
Description: While the above examples were specifically directed to the isomerization of (−)-epicatechin to (−)-catechin, it will be understood that the same processes can and will result in the isomerization of (+)-catechin to (+)-epicatechin. It will further be understood that the kinetics for the isomerization of (+)-catechin to (+)-epicatechin are similar to those for the isomerization of (−)-epicatechin to (−)-catechin, viz., the equilibrium point for a given set of temperature and pH parameters is essentially the same for either isomerization, and the equilibrium mixture resulting from the isomerization of (+)-catechin is about 70% (+)-catechin and about 30% (+)-epicatechin, with a molar ratio of (+)-epicatechin to (+)-catechin of about 1:2. Indeed, we have observed that the isomerization of (+)-catechin to (+)-epicatechin favors the same equilibrium point as the isomerization of (−)-epicatechin to (−)-catechin, that is, the molar ration of 1:2 (+)-epicatechin:(+)-catechin.

- (+)-catechin in equilibrium mixture: about 70%
- (+)-epicatechin in equilibrium mixture: about 30%
Structure (SMILES): Oc1cc(O)c2c(c1)O[C@H](c1ccc(O)c(O)c1)[C@@H](O)C2 [(+)-catechin]
